Consider one molecule from patent publication US12280138B2, “Dedifferentiated cell extract of Bletilla and method for whitening, anti-oxidation and anti-wrinkling applying the same, and cosmetic comprising the same” (CHLITINA INTELLIGENCE LIMITED, priority 2021, dated 2025).

Test [1] deals with zebrafish embryos. The test is described as follows: Whitening efficacy in zebrafish experiment (melanin plaques). The format is in vivo. To be noted: 10 mM (about 1421 μg/ml). Here is the method: The wild-type zebrafish were stimulated to spawn, and the eggs spawned within one hour were collected. Upon 9 hours after fertilization, the embryos were screened by microscope to confirm the developmental state after fertilization. Each group had 12 fish embryos. The E3 culture medium, which was the zebrafish embryo culture medium, served as the control group. The positive control group was added with kojic acid (Kojic acid). Each experimental group was added with Example 1, Comparative example 1 and Comparative example 2, respectively. As zebrafish embryos produced melanin within 24 hours after fertilization, the treatment finished before the production of melanin, and the melanin production state in the hatched fish was observed upon 72 hours after fertilization. First, the fish was anesthetized and placed on a flat surface. The photo was taken from a top view, and the melanin plaques were analyze by the software of ImageJ. The intensity of the melanin plaque in the control group served as the standard, that is, the melanin amount thereof was 100%. The relative melanin amounts of the rest of the groups were calculated.

Test [2] relates to melanosis. Particulars: 1% kojic acid applied to male and female subjects; cited from earlier work.

Consider `O=c1cc(CO)occ1O` [kojic acid], for which, in test [1], the “Inhibition rate of melanin production” value is “about 55%”. For the same molecule, the melanosis entry in test [2] is given as “significantly inhibited”.
